Drawing on US20210284638A1 (Saint Louis University, priority 2018, published 2021), this text covers IC50 for 13 compounds.

Counter-ions that a name gives are not always drawn.

What all share (format): binding
The target in test [1] is T1, Recombinant human integrin αVβ8 (Homo sapiens, UniProt P06756+P26012).
T1 construct: purchased R&D Systems 4135-AV
In words: Solid Phase Receptor Assay for αVβ8 function. As to conditions: plate-bound human LAP; read-out: αVβ8 SPRA IC50. The method, then:
F. Solid Phase Receptor Assay (SFRA) for αVβ8 Function
Wells were washed 3 times with 150 μL TBS+ and then 150 μL of blocking buffer (TBS+ with 1% bovine serum albumin, Sigma A7906) was added. The plate was incubated for 1 hr at 37° C. and then washed 3× with TBS+. […] Compounds were diluted to 20 μM and 1 μL was added to each well of the plate according to a standard template with each sample repeated in triplicate. After incubation for two hours at room temperature, the plate was washed 3× with 150 μL of TBS+. To each well, 50 μL of biotinylated anti-αV antibody (R&D Systems, BAF1219) at 1 μg/mL in TBS+/0.1% BSA were added and the plate was covered and incubated for 1 hr at room temperature. After washing the plate 3× with 150 μL of TBS+ buffer, 50 μL of streptavidin-conjugated horseradish peroxidase (R&D Systems, DY998) diluted in TBS+ blocking buffer were added to the wells and the plate incubated for 20 min at room temperature. The plate was washed 3× with TBS+ followed by 50 μL of TMB substrate (Sigma T4444) added to each well in the dark and the plate incubated for 10 min at room temperature. 25 μL of 1.0 M phosphoric acid was added as a stop solution and the plates were read at 450 nm using a Spectramax plate reader.

The target of test [2] is T2, Recombinant human integrin αVβ6 (Homo sapiens, UniProt P06756+P18564).
T2 construct: purchased R&D Systems 3817-AV
The test is described as follows: Solid Phase Receptor Assay (SPRA) for αVβ6 function. To be noted: plate-bound human LAP. The method, then:
E. Solid Phase Receptor Assay (SPRA) for αVβ6 Function
Wells were washed 3 times with 150 μL TBS+, and then 150 μL of blocking buffer (TBS+ with 1% bovine serum albumin, Sigma A7906) was added. The plate was incubated for 1 hr at 37° C., and then washed 3× with TBS+ buffer. […] Compounds were diluted to 20 μM and then 1 μL was added to each well of the plate according to a standard template with each sample repeated in triplicate. After incubation for two hours at room temperature, the plate was washed 3× with 150 μL of TBS+ buffer. To each well, 50 μL of biotinylated anti-αV antibody (R&D Systems, BAF1219) at 0.5 μg/mL in TBS+/0.1% BSA were added and the plate was covered and incubated for 1 hr at room temperature. After washing the plate 3× with 150 μL of TBS+ buffer, 50 μL of streptavidin-conjugated horseradish peroxidase (R&D Systems, DY998) diluted in TBS+ blocking buffer were added to the wells and the plate incubated for 20 min at room temperature. The plate was washed 3× with TBS+ buffer followed by 50 μL of TMB substrate (Sigma T4444) added to each well in the dark and the plate incubated for 10 min at room temperature. 25 μL of 1.0 M phosphoric acid was added as a stop solution and the plates were read at 450 nm using a Spectramax plate reader.

Test [3] deals with T3, Recombinant human integrin αvβ1 (Homo sapiens, UniProt P05556+P06756).
T3 construct: purchased R&D Systems 6579-AV
The test is described as follows: Solid Phase Receptor Assay (SPRA) for αVβ1 function. As to conditions: plate-bound human fibronectin. The method, then:
B. Solid Phase Receptor Assay (SPRA) for αVβ1 Function
(§1) Wells were washed 3 times with 150 μL TBS+ and then 150 μL of blocking buffer (TBS+ with 1% bovine serum albumin, Sigma A7906) was added. The plate was incubated for 1 hr at 37° C. and then washed 3× with TBS+ buffer. […] Compounds were diluted to 20 μM and 1 μL was added to each well of the plate according to a standard template with each sample repeated in triplicate. After incubation for two hours at room temperature, the plate was washed 3× with 150 μL of TBS+ buffer. To each well, 50 μL of biotinylated anti-αV antibody (R&D Systems, BAF1219) at 1 μg/mL in TBS+/0.1% BSA were added and the plate covered and incubated for 1 hr at room temperature. After washing the plate 3× with 150 μL of TBS+ buffer, 50 μL of streptavidin-conjugated horseradish peroxidase (R&D Systems, DY998) diluted in TBS+ blocking buffer were added to the wells and the plate incubated for 20 min at room temperature. The plate was washed 3× with TBS+ buffer followed by 50 μL of TMB substrate (Sigma, T4444) added to each well in the dark and the plate incubated for 25 min at room temperature. 25 μL of 1.0 M phosphoric acid was added as a stop solution and the plates were read at 450 nm using a Spectramax plate reader.

The target in test [4] is T4, Recombinant human integrin αVβ5 (Homo sapiens, UniProt P06756+P18084).
T4 construct: purchased R&D Systems 2528-AV
The test is described as follows: Solid Phase Receptor Assay (SPRA) for αVβ5 function. To be noted: plate-bound human vitronectin. As to the method:
D. Solid Phase Receptor Assay (SPRA) for αVβ5 Function
as §1, with “μM and then 1 μL” for “μM and 1 μL”, “well, 50 μl of biotinylated” for “well, 50 μL of biotinylated”, “BAF1219) at 0.5 μg/mL in” for “BAF1219) at 1 μg/mL in”, “TBS+/0.1% BSA at 0.5 μg/mL were added” for “TBS+/0.1% BSA were added”, “TMB substrate (Sigma T4444) added” for “TMB substrate (Sigma, T4444) added”, “incubated for 5 min at” for “incubated for 25 min at”

T3 sequence (P06756 31-992 limits assumed): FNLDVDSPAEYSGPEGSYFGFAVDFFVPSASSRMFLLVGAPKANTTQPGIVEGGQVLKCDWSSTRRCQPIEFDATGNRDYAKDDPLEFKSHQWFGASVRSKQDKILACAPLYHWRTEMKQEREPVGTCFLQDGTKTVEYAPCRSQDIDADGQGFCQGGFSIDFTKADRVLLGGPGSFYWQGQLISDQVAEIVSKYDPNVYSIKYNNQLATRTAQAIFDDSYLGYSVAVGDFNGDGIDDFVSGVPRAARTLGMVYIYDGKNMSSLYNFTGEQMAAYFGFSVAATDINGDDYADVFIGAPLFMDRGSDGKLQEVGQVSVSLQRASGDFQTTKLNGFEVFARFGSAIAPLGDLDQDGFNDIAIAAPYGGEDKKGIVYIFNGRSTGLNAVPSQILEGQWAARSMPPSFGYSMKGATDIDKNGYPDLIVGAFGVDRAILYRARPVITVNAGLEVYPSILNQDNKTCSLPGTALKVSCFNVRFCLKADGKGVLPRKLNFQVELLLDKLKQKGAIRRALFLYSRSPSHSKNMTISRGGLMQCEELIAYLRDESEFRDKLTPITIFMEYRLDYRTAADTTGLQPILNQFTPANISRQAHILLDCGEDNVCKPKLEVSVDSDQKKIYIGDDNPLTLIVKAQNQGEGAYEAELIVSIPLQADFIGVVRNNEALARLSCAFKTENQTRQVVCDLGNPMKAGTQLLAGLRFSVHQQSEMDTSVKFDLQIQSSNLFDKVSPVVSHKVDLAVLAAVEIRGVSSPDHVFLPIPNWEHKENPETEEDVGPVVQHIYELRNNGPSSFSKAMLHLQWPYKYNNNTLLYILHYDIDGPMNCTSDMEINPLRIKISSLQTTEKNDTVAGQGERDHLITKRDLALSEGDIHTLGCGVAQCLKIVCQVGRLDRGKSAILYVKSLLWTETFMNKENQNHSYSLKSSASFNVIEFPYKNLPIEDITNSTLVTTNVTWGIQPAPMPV
T3 sequence (P05556 21-728 limits assumed): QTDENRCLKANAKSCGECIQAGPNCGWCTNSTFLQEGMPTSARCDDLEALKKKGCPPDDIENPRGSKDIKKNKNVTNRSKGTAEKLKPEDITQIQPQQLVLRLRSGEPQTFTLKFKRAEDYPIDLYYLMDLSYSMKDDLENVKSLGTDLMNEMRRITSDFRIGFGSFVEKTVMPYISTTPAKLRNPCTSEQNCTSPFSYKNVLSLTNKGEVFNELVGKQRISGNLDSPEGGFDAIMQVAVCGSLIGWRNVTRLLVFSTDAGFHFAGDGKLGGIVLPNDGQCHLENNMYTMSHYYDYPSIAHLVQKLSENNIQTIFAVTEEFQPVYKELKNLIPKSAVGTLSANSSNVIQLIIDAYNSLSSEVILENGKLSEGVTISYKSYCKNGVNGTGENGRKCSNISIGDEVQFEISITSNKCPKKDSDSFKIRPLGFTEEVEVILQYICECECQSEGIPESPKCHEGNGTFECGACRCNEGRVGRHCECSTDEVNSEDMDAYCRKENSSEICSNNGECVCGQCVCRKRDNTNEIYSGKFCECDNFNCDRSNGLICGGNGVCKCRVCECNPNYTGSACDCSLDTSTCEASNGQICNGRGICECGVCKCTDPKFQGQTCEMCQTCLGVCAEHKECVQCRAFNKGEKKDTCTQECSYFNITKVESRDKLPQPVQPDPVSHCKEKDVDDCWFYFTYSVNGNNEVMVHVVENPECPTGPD
T1 sequence (P06756 31-992 limits assumed): as the sequence (P06756 31-992 limits assumed) above
T1 sequence (P26012 43-684 limits assumed): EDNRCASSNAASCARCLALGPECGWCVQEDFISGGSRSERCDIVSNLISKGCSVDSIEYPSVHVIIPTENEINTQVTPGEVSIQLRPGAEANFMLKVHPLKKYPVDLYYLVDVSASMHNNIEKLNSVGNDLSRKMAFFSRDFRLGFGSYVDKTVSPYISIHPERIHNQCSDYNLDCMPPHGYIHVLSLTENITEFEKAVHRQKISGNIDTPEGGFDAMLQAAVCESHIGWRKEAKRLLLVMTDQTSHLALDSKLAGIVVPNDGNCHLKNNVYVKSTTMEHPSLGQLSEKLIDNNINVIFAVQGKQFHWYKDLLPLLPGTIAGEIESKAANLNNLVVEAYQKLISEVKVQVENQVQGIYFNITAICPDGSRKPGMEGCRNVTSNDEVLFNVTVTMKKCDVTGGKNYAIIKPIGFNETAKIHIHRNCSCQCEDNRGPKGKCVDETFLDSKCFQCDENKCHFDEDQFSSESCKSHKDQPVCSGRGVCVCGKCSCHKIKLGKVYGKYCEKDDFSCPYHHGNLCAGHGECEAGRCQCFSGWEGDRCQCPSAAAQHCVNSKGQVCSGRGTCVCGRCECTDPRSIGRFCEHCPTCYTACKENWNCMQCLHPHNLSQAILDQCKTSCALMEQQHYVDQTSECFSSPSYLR
T4 sequence (P06756 31-992 limits assumed): as the sequence (P06756 31-992 limits assumed) above
T4 sequence (P18084 24-719 limits assumed): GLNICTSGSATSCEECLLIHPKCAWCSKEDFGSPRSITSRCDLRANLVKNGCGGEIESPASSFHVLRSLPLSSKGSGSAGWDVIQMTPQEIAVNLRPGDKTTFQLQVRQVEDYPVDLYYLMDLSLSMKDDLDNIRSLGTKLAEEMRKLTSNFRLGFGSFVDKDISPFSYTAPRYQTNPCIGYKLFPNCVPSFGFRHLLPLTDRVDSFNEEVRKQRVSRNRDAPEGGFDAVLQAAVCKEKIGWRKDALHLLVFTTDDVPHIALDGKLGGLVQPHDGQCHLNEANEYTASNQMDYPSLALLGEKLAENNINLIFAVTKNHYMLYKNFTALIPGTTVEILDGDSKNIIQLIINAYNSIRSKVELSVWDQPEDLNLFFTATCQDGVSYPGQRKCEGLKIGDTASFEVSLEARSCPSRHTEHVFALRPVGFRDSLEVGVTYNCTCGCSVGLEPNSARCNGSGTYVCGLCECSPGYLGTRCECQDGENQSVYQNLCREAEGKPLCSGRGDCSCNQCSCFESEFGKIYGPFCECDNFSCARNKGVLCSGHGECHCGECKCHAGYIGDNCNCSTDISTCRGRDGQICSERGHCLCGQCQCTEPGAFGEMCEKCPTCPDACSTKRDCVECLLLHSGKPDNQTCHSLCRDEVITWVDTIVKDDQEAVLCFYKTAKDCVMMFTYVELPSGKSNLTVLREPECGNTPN
T2 sequence (P06756 31-992 limits assumed): as the sequence (P06756 31-992 limits assumed) above
T2 sequence (P18564 22-707 limits assumed): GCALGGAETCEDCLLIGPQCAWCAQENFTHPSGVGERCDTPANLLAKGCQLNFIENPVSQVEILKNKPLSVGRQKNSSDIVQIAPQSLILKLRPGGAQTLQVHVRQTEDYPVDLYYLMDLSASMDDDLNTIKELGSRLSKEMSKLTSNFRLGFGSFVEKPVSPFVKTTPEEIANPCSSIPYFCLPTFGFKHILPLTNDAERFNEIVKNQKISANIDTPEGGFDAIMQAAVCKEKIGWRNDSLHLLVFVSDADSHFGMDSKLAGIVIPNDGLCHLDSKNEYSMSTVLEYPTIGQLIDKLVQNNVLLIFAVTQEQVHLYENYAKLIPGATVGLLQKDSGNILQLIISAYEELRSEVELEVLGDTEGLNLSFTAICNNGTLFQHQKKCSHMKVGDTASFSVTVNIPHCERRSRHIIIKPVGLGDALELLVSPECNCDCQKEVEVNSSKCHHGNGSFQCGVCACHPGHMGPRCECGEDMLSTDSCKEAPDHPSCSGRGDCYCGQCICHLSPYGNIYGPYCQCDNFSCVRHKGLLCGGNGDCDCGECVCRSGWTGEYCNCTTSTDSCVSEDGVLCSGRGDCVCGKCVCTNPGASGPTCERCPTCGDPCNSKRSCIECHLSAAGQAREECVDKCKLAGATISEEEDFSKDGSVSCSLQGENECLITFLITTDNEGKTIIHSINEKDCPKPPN

For orientation: IC50 means the concentration that inhibits the measured activity by half. Regarding `COc1ccc(C2COC2)cc1C(CC(=O)O)Cc1cc(OCCc2ccc3c(n2)NCCC3)n(C)n1` (stereo not shown) [Example 23, 3-[2-methoxy-5-(oxetan-3-yl)phenyl]-4-[1-methyl-5-[2-(5,6,7,8-tetrahydro-1,8-naphthyridin-2-yl)ethoxy]pyrazol-3-yl]butanoic acid], the IC50 in test [1] stood at 190 nM; in test [2], 140 nM; in test [3] it was 8 nM; in test [4], 29 nM.

For `CC(C)(C)c1ccc(Br)c(C(CC(=O)O)Cc2csc(CCCc3ccc4c(n3)NCCC4)n2)c1` (stereo not shown) [Example 34], the IC50 in test [1] is 140 nM; in test [2], 3400 nM; in test [3] it was 4 nM; in test [4], 360 nM.

For the compound `COc1c(Br)cc(C(C)(C)C)cc1C(CC(=O)O)Cc1cc(OCCc2ccc3c(n2)NCCC3)n(C)n1` (stereo not shown) [Example 12, 3-(3-bromo-5-(tert-butyl)-2-methoxyphenyl)-4-(1-methyl-5-(2-(5,6,7,8-tetrahydro-1,8-naphthyridin-2-yl)ethoxy)-1H-pyrazol-3-yl)butanoic acid], the 50% inhibitory concentration (IC50) is 17 nM in test [1], 180 nM in test [2], 13 nM in test [3] and 160 nM in test [4].

With `Cn1nc(CC(CC(=O)O)c2cc(C(C)(C)C)cc(C(C)(C)C(F)(F)F)c2)cc1OCCc1ccc2c(n1)NCCC2` (stereo not shown) [Example 5, 3-(3-(tert-butyl)-5-(1,1,1-trifluoro-2-methylpropan-2-yl)phenyl)-4-(1-methyl-5-(2-(5,6,7,8-tetrahydro-1,8-naphthyridin-2-yl)ethoxy)-1H-pyrazol-3-yl) butanoic acid], the IC50 in test [1] is 20 nM; in test [2], 460 nM; in test [3], 4 nM; in test [4], 160 nM.

On to `Cn1nc(CC(CC(=O)O)c2cc(C(C)(C)C#N)cc(C(C)(C)C#N)c2)cc1OCCc1ccc2c(n1)NCCC2` (stereo not shown) [Example 41, 3-(3,5-bis(2-cyanopropan-2-yl)phenyl)-4-(1-methyl-5-(2-(5,6,7,8-tetrahydro-1,8-naphthyridin-2-yl)ethoxy)-1H-pyrazol-3-yl)butanoic acid trifluoroacetate], for which the IC50 in test [1] amounted to 1 nM; in test [2], 37 nM; in test [3] it was 1 nM; in test [4] it was 5 nM.

For the compound `Cn1nc(CC(CC(=O)O)c2cc(C(C)(C)C)ccc2OC(F)(F)F)cc1OCCc1ccc2c(n1)NCCC2` (stereo not shown) [Example 20, 3-(5-(tert-butyl)-2-(trifluoromethoxy)phenyl)-4-(1-methyl-5-(2-(5,6,7,8-tetrahydro-1,8-naphthyridin-2-yl)ethoxy)-1H-pyrazol-3-yl)butanoic acid], the IC50 in test [1] stood at 67 nM; in test [2], 220 nM; in test [3], 6 nM; in test [4], 590 nM.

Consider `COc1ccc(C2CCOCC2)cc1C(CC(=O)O)Cc1cc(OCCc2ccc3c(n2)NCCC3)n(C)n1` (stereo not shown) [Example 46, 3-(2-methoxy-5-(tetrahydro-2H-pyran-4-yl)phenyl)-4-(1-methyl-5-(2-(5,6,7,8-tetrahydro-1,8-naphthyridin-2-yl)ethoxy)-1H-pyrazol-3-yl)butanoic acid], for which the IC50 in test [1] turned out to be 250 nM; in test [2], 260 nM; in test [3] it was 2.8 nM; in test [4], 87 nM.

For `COc1ccc(C2(C(F)F)CC2)cc1C(CC(=O)O)Cc1cc(OCCc2ccc3c(n2)NCCC3)n(C)n1` (stereo not shown) [Example 21, 3-[5-[1-(difluoromethyl)cyclopropyl]-2-methoxy-phenyl]-4-[1-methyl-5-[2-(5,6,7,8-tetrahydro-1,8-naphthyridin-2-yl)ethoxy]pyrazol-3-yl]butanoic acid], the IC50 is 140 nM in test [1], 320 nM in test [2], 10 nM in test [3] and 290 nM in test [4].

In the case of `COc1c(C(C)(C)C)cc(C(CC(=O)O)Cc2cc(OCCc3ccc4c(n3)NCCC4)n(C)n2)cc1C(C)(C)C` (stereo not shown) [Example 10, 3-(3,5-di-tert-butyl-4-methoxyphenyl)-4-(1-methyl-5-(2-(5,6,7,8-tetrahydro-1,8-naphthyridin-2-yl)ethoxy)-1H-pyrazol-3-yl)butanoic acid], the IC50 was determined as 92 nM in test [1], 130 nM in test [2], 4 nM in test [3] and 84 nM in test [4].

Regarding `CC(C)(C)c1cc(C(CC(=O)O)Cc2csc(CCCc3ccc4c(n3)NCCC4)n2)cc(C(C)(C)C)c1` (stereo not shown) [Example 27, 3-(3,5-di-tert-butylphenyl)-4-(2-(3-(5,6,7,8-tetrahydro-1,8-naphthyridin-2-yl)propyl)thiazol-4-yl)butanoic acid], the IC50 in test [1] was found to be 55 nM; in test [2], 1000 nM; in test [3] it was 11 nM; in test [4], 1100 nM.

Consider `COc1ccc(S(F)(F)(F)(F)F)cc1C(CC(=O)O)Cc1cc(OCCc2ccc3c(n2)NCCC3)n(C)n1` (stereo not shown) [Example 24, 3-[2-methoxy-5-(pentafluoro-sulfanyl)phenyl]-4-[1-methyl-5-[2-(5,6,7,8-tetrahydro-1,8-naphthyridin-2-yl)ethoxy]pyrazol-3-yl]butanoic acid], for which the IC50 in test [1] was 33 nM; in test [2], 48 nM; in test [3], 9 nM; in test [4] it was 96 nM.

For `COc1ccc(C2(C(F)F)CC2)cc1C(CC(=O)O)Cc1csc(CCCc2ccc3c(n2)NCCC3)n1` (stereo not shown) [Example 36, 3-(5-(1-(difluoromethyl)cyclopropyl)-2-methoxyphenyl)-4-(2-(3-(5,6,7,8-tetrahydro-1,8-naphthyridin-2-yl)propyl)thiazol-4-yl)butanoic acid], the half-inhibitory concentration (IC50) in test [1] came to 29 nM; in test [2] it was 120 nM; in test [3], 2 nM; in test [4], 150 nM.

For the compound `COCC1(c2cc(C(CC(=O)O)Cc3cc(OCCc4ccc5c(n4)NCCC5)n(C)n3)cc(C(C)(C)C)c2)CCOCC1` (stereo not shown) [Example 1, 3-[3-tert-butyl-5-[4-(methoxymethyl)tetrahydropyran-4-yl]phenyl]-4-[1-methyl-5-[2-(5,6,7,8-tetrahydro-1,8-naphthyridin-2-yl)ethoxy]pyrazol-3-yl]butanoic acid], the IC50 in test [1] stood at 27 nM; in test [2], 200 nM; in test [3] it was 6 nM; in test [4], 44 nM.
